{"source": "patent US8334107B2", "about": "“Detection systems utilizing supported lipid bilayers” (priority 2005, dated 2012)", "key": {"[1]": {"experiment": "Lipid bilayers on MS-PPE as barriers to superquenching by AQS, flow cytometry", "assay_type": "physicochemical", "conditions": "10 μM AQS", "protocol": "Small unilamellar vesicles (SUVs) were prepared using a 2 mM solution of DPPC, 1 mM egg-PC, or 2 mM DMPG in chloroform. The lipid was dried by nitrogen gas followed by vacuum. The dried lipid was resuspended in phosphate buffer saline (PBS), pH 7.4, and incubated at 37° C. for 10 min, then sonicated to optical clarity in a sonication bath (Branson Cleaning Equipment Co., Shelton, Conn.).\nLipid bilayers were assembled on microspheres as previously described (Buranda et al. Langmuir 19:1654-1663 (2003); Bayerl & Bloom, Biophys J 58:357-362 (1990)). Briefly, the small unilamellar vesicles were incubated at 37° C. for 5 min, and PPE-coated microspheres were added to them, and mixed at room temperature using a vortex mixer for 30 min, followed by incubation at 37° C. for 5 min without mixing. The lipid-coated PPE-coated microspheres were washed by suspension in PBS followed by centrifugation, where the clear supernatant was decanted and discarded. The cycle of resuspension, centrifugation, and decanting, was repeated four additional times. Finally, the lipid-coated PPE-coated microspheres were resuspended in PBS.\n(§1) Bead suspensions of 2.5×10^5 PPE-coated microspheres in 200 μL PBS were analyzed using a FACScan flow cytometer (Becton-Dickinson, Sunnyvale, Calif.) with excitation at 488 nm. Fluorescence signals were acquired on the FL-1 channel (525 nm) using log amplification and analyzed with the CellQuest software.\nThe feasibility of using the zwitterionic lipids DPPC and egg-PC to form supported lipid bilayers on MS-PPE was assessed (FIG. 15). […] Addition of AQS produced an almost 40% reduction of the polymer fluorescence, yet the fluorescence of the DPPC bilayer coated MS-PPE in the presence of the AQS quencher was still almost 10-fold higher than that of MS-PPE and quencher without the lipid.\nThe PPE polymer is positively charged. […] However when using 2 mM DMPG, the modulation of polymer fluorescence was relatively small (FIG. 15). […] Thus, upon addition of quencher to MS-PPE after treatment with DMPG ˜70% of fluorescence of the PPE was retained (FIGS. 16A and 16B)."}, "[2]": {"test_system": "EPC bilayer on porous silica beads", "experiment": "Suspension study: release of fluorescein dye from lipid bilayer coated porous silica beads", "assay_type": "biochemical", "protocol": "Lipid coatings on beads were disrupted using 10% Triton X-100. Each sample in micro-centrifuge tubes contained 5 mg of lipid bilayer coated, fluorescein entrapped beads in 200 μL of Tris buffer. Samples were centrifuged and 100 μL aliquots of supernatant were mixed with either 100 μL of Tris buffer or 100 μL of 10% Triton X-100® detergent in separate centrifuge tubes. The fluorescence intensity of each mixture was immediately (time=0) recorded. Each mixture was mixed with its respective bead sample in centrifuge tube and incubated at 25° C. in the dark. After 30 min, samples were centrifuged and fluorescent intensity of the supernatants was measured. Beads were resuspended in their respective supernatants. Fluorescence intensity was again measured at 90 and 150 min.\nExperimental procedures were similar to the Triton X-100® detergent based analysis. For experiments with α-toxin, three different toxin concentrations: 15, 45 and 250 μg/mL were used at 37° C. and 25° C. Beads coated with EPC were used. In the experiments with melittin, 220 μM melittin was used with beads coated with either 100% EPC, 10:90 (molar ratio) mixture of DMPG and EPC or an 80:20 mixture of DMPG and DMPC. All melittin experiments were conducted at 25° C.\nPrevious suspension studies on disruption of lipid bilayers have been performed with small unilamellar vesicles where disruption of the lipid bilayer membranes was detected by monitoring the unquenching of a highly concentrated, encapsulated dye. In the present work disruption was monitored via release of fluorescein dye from porous beads, by measuring the increase in fluorescence intensity of the supernatant at 520 nm. Beads were first suspended in Tris buffer containing the disruptor. After selected time periods, beads were sedimented by centrifuging and a portion of the supernatant was taken for the measurement. The measured portion was added back to the bead sample to permit continuous monitoring. The scattering effect that was present in vesicle based studies was minimized by measuring only the supernatant after centrifugation of the beads."}, "[3]": {"test_system": "DMPG lipid bilayer on MS-PPE", "experiment": "Disruption of DMPG lipid bilayer on MS-PPE detected by superquenching with AQS, flow cytometry", "assay_type": "biochemical", "protocol": "Lipid bilayers were disrupted by adding Triton X-100® detergent to the bead suspension to a final concentration of 0.25% (w/v).\nas §1\nBead suspensions of 2.5×10^5 DMPG-coated MS-PPE in 200 μL of PBS were analyzed using a FACScan flow cytometer (Becton-Dickinson, Sunnyvale, Calif.) with excitation at 488 nm. Fluorescence signals were acquired on FL-1 channel (525 nm) using log amplification and analyzed with the CellQuest software. Kinetic analysis of disruption of supported lipid bilayer by melittin was performed by acquiring real-time data with continuous mixing of samples (10^6 MS-PPE in 800 μl of PBS) using a magnetic stirrer. The raw data were analyzed using IDL Query software developed by Bruce Edwards (Cancer Center, University of New Mexico, Albuquerque, N. Mex.).\nBecause an anionic lipid was used to form a lipid bilayer around MS-PPE, it was expected that MLT will disrupt the DMPG lipid bilayer by such a detergent-like action. This was tested by adding 10 μM AQS to DMPG-coated MS-PPE followed by treatment with one of the following: Triton X-100® detergent, synthetic MLT (sMLT), or natural MLT (nMLT) and immediately reading the fluorescence by flow cytometry. […] These histograms resemble the ones reported previously for MS-PPE, without a lipid coating, in absence and in presence of AQS.\nThe kinetics of disruption of supported lipid bilayer by MLT were monitored by measuring real-time changes in fluorescence intensity by flow cytometry (FIG. 19). Suspensions of 10^6 DMPG-coated MS-PPE in 800 μL of PBS were treated with AQS at a final concentration of 10 μM, then with either sMLT, Triton X-100® detergent, or no treatment. […] Treatment with sMLT in the absence of AQS led to an increase in normalized fluorescence (FIG. 19, trace A). This can be attributed to disruption of the lipid bilayer by sMLT, and is consistent with a reversal of the slight quenching of fluorescence caused by the formation of a DMPG lipid bilayer over MS-PPE. Addition of AQS alone to DMPG-coated MS-PPE (FIG. 19, trace C) led to a 20% reduction in fluorescence as reported earlier. Addition of Triton X-100® detergent to DMPG-coated MS-PPE after the addition of AQS (first dip in trace E, FIG. 19) caused immediate decrease in fluorescence to ˜10% of its original value (second dip in trace E, FIG. 19). In contrast, addition of sMLT, after the addition of AQS, (FIG. 19, trace D) led to a gradual reduction of fluorescence intensity to ˜20% of the original value. Although MLT forms dimers at high concentrations (Dempsey, C. E. Biochim. Biophys. Acta 1990, 1031, 143-161), it is monomeric at the concentrations used in this study. On the other hand, Triton X-100® detergent forms micelles at the concentration used in this study."}, "[4]": {"test_system": "lipid membranes on porous silica beads (containing fluorescein dye)", "experiment": "Microfluidic study: detection of membrane interaction by release of dye from bead packed microcolumn", "assay_type": "biochemical", "protocol": "To create a packed microcolumn of lipid coated beads containing fluorescein, 2 μL of silica bead (diameter=20 μm) containing suspension (0.05 mg/μL) was injected into a microfluidic channel by applying vacuum at the outlet port of the microchannel, followed by the injection of 10 μL of fluorescein-entrapped bead (diameter=10 μm) containing suspension (0.05 mg/μL). The bead packed microchannel was mounted onto a vertical translational stage located in the sample holder space of the fluorimeter. Just below the bead segment, the microchannel was irradiated with an Argon ion laser (λ=488 nm, 8-10 mW) excitation. The inlet of the column was connected to a buffer reservoir while the outlet was connected to a vacuum source. As the fluorescence intensity at 520 nm was monitored, several microliters of Tris buffer was passed through the microchannel before the injection of Triton X-100® detergent. […]\nThe packed segment was about 2 mm long. The disruption of the membranes on porous silica beads (containing fluorescein dye) by Triton X-100® detergent was detected by monitoring the release of the dye from the beads, at a point just below the bead segment as indicated in FIG. 7B. […] The microcolumn was irradiated at 488 nm and fluorescence intensity was monitored at 520 nm. […]"}, "[5]": {"conditions": "0.25% (w/v) Triton X-100, 10 μM AQS"}}}
{"compound": "CCCCCCCCCCCCCC(=O)OC[C@H](COP(=O)([O-])OCC(O)CO)OC(=O)CCCCCCCCCCCCC.[Na+]", "note": "(mixture of isomers) [DMPG, 1,2-dimyristoyl-sn-glycero-3-[phosphor-rac-(1-glycerol)] sodium salt]", "values": [{"measurement": "fluorescence of the PPE retained upon addition of quencher", "setting": "[1]; 2 mM DMPG", "value": "~70", "unit": "%"}]}
{"compound": "CCCCCCCCCCCCCCCC(=O)OC[C@H](COP(=O)([O-])OCC[N+](C)(C)C)OC(=O)CCCCCCCCCCCCCCC", "note": "[DPPC, 1,2-dipalmitoyl-sn-glycero-3-phosphatidylcholine]", "values": [{"measurement": "fluorescence with AQS relative to MS-PPE and quencher without the lipid", "setting": "[1]", "value": "~10", "unit": "fold"}, {"measurement": "reduction (quenching) of polymer fluorescence on addition of AQS", "setting": "[1]; lipid coated MS-PPE", "value": "~40", "unit": "%"}]}
{"compound": "Triton X-100", "values": [{"measurement": "increase in fluorescence intensity of the supernatant", "setting": "[2]; 10% Triton X-100, first 30 min, 25° C.", "value": "more than 70 fold"}, {"measurement": "increase in fluorescence intensity (total disruption of bilayers)", "setting": "[2]; Triton X-100 added after 150 min of α-toxin exposure", "value": 50, "unit": "fold"}, {"measurement": "fluorescence after bilayer disruption, of the fluorescence of DMPG-coated MS-PPE in the absence of quencher", "setting": "[3]; [5]", "value": "~18", "unit": "%"}, {"measurement": "fluorescence after bilayer disruption, of the original fluorescence value", "setting": "[3]; [5]", "value": "~10", "unit": "%"}, {"measurement": "fluorescence intensity, of the original value", "setting": "[3]; real-time kinetics, added after 10 μM AQS (traces D, E)", "value": "~10", "unit": "%"}, {"measurement": "initial signal (1st peak) less than that observed in suspension studies", "setting": "[4]; 10% Triton X-100, microcolumn versus suspension", "value": "~80", "unit": "%"}, {"measurement": "increase in fluorescence intensity at detection point", "setting": "[4]; 10 μL of 10% Triton X-100, about 5 min no flow incubation", "value": 25, "unit": "fold"}]}
